Measured values: patent US5192791A, “Fused ring heterocycles and pharmaceutical compositions containing same” (Biofor, Ltd., priority 1990, dated 1993)

Tests used:
[1] = tested on: Mycobacterium butyricum adjuvant arthritis, hind paw edema; test: Adjuvant Arthritis Assay: Developing (hind paw edema, rats); assay type: in vivo, female Lewis rats; conditions: 96 h, dosed once daily for 4 days in 0.25% methylcellulose, paw edema on fifth day
Experimental: Anti-Inflammatory: This activity was evaluated via a modification of the Adjuvant Arthritis Assay (AA) described by S. […] This assay measures the ability of the test compound to antagonize local edema, a characteristic of the inflammatory response. […] The left and right rear paws of female Lewis rats (Charles River Laboratories) weighing 160-180 grams each were measured by mercury displacement prior to injection (Day Zero). Adjuvant arthritis was induced in this rat colony by subcutaneous injection of Mycobacterium butyricum (0.75 mg in 0.1 ml light mineral oil, Fisher) using an automated Cornwall syringe. On days 11-15 post-adjuvant the injected animals with 0.25 to 0.75 ml. paw edema were selected and distributed evenly, according to edema size, into control and experimental groups of ten rats each. Vehicle control and drug treatments were assigned to the groups at random. The assay was performed using a variable dose level for each test compound per kilogram per day in 0.25% methylcellulose vehicle. All animals were dosed once daily for 4 days and on the fifth day both hind paw volumes were again measured using mercury displacement. The hind paw edema was determined for each rat by subtracting the hind paw volume measured on Day Zero from the hind paw volume measured on the fifth day of the study. Group means were determined and the drug effect was calculated as percent inhibition of the hind paw edema according to the following equation: [formula] […] The known anti-inflammatory NAPROXEN was also tested for comparison purposes.

[2] = tested on: yeast-induced fever; test: Antipyretic Evaluation (yeast-induced fever in rats); assay type: in vivo, male Sprague-Dawley rats; conditions: 300 mg/kg, oral, 19 hours after yeast; temperature one hour after dosing
Experimental: Antipyretic: This activity was evaluated by creating a yeast-induced fever in rats according to a modified method of the procedure described by Loux et al in "Toxicology and Applied Pharmacology", Vol. 22: page 672 (1972). In this assay rats injected with yeast in distilled water were dosed with test compounds, aspirin (positive control) and a vehicle (negative control) and the observed differences in body temperature were analyzed statistically.
Antipyretic activity was evaluated using a modification of the test described by Loux et al, in Toxicology and Applied Pharmacology, 22:672 (1972), that is, yeast-induced fever in rats. Each test group consisted of ten male Sprague-Dawley rats (Charles River Laboratories), weighing 180-225 grams each. Eighteen hours prior to compound administration the rats were weighed and body temperatures were recorded. Food was removed with water available ad libitum. […]
Test compounds suspended in 0.25% methylcellulose (0.25% MC) or olive oil were administered orally by gavage nineteen hours following the yeast injection. Body temperatures were taken and recorded one hour after compound administration. […] The mean temperature of the compound-treated groups, positive control group (Aspirin) and negative control group (vehicle) were calculated at 18 hours and 20 hours. The data was analyzed statistically using a paired-samples Student's t-Test.

[3] = tested on: Mycobacterium butyricum adjuvant arthritis, hind paw edema; test: Adjuvant Arthritis Assay; Immunomodulatory; assay type: in vivo, Lewis female rats; conditions: 50 mg/kg, oral, Day 5 to 9; edema on Day 15
Experimental: Immunomodulatory: This activity was determined by using a Modified Adjuvant Assay procedure in which female rats were injected with Mycobacterium butyricum to induce hind paw edema. The test compounds were administered orally and the difference in volume between dosed and non-dosed paws was determined.
Lewis female rats were injected in the tail subcutaneously with Mycobacterium butyricum (0.75 mg in 0.1 ml light mineral oil, Fisher) on Day Zero. Prior to injection the volumes of the left and right rear paws were measured by mercury displacement. All rats were dosed orally with vehicle or test compounds on Day 5 to 9 inclusive. The volume of both hind paws were determined on Day 15 and the percent inhibitions were calculated based upon average edema on Day 15 relative to the edema mean in the control group.

SMILES	ED50 [1]	Change in Temperature, 18-20 Hour Period [2]	% Inhibition [3]
CC(C)(C)c1cc(N2CCCCC2=O)cc(C(C)(C)C)c1O [Example 2, 1-(3,5-di-tert-butyl-4-hydroxyphenyl)piperidin-2-one]	34 mg/kg		
CC(=O)Oc1ccccc1C(=O)O [Aspirin, reference compound]		-2.05 °C	
COc1ccc2cc([C@H](C)C(=O)O)ccc2c1 [NAPROXEN, reference compound]	28 mg/kg		
CC(C)(C)c1cc(N2CCCC2=O)cc(C(C)(C)C)c1O [Example 1, 1-(3,5-di-tert-butyl-4-hydroxyphenyl)pyrrolidin-2-one]	21 mg/kg	-1.55 °C	39%
